In patent US6930118B2, “3-Oxadiazol-5-yl-1-aminoalkyl-1h-indole derivatives” (Amrad Operations Pty. Ltd., priority 2001, dated 2005):

Columns and labels:
CB1 receptor [1] = target: T1, CB1 receptor (Mus musculus, UniProt P47746); experiment: Mouse electrically-stimulated isolated vas deferens bioassay (MVD); format: cell-based; conditions: decrease of electrically evoked twitch force, read-out: CB1 (MVD) % inh at 1.0 μM
T1 construct: Mouse vasa deferentia were dissected with capsular connective tissue intact and set up in 20 ml organ baths; from tissue; host or cells: mouse (Swiss white) isolated vas deferens
T1 sequence (P47746 whole entry): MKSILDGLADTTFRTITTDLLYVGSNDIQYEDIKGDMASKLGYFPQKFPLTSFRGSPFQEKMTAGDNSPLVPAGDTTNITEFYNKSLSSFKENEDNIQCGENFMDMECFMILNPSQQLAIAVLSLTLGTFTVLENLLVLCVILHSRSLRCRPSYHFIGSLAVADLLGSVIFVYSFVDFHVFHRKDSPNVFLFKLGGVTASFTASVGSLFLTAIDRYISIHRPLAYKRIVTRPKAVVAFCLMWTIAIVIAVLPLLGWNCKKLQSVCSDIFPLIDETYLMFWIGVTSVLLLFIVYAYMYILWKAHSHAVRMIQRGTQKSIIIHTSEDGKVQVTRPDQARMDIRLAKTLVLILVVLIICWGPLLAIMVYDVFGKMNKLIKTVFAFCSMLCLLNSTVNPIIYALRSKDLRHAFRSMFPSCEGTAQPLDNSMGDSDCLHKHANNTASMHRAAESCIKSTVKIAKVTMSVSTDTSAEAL
Procedure: Functional activity of the compounds was assayed using the mouse electrically-stimulated vas deferens bioassay, a measure of CB1 receptor function (24,25). […] CB2 functionality may be investigated using assays known to those skilled in the art; for example those described in U.S. Pat. No. 6,013,648.
Swiss white mice (35-40 g) were killed by exposure to 80% CO2 in O2 and exsanguination. Mouse vasa deferentia were dissected with capsular connective tissue intact and set up in 20 ml organ baths at 37° C. in Mg^2+-free physiological salt solution. The upper (epididymal) end was attached to an isometric force transducer (Grass FTO3C) and the lower (prostatic) end tied to a fixed support between two parallel platinum field electrodes (5 mm apart, 5 mm long). The tissue was initially stretched by 0.5 g force and allowed to equilibrate 10 min. The tissues were stimulated (Grass S88 stimulator) to contract using trains of electrical field stimulation of 3 pulses (4 Hz), 0.5 ms duration, 100 V (80% maximal voltage) every 20 s for 10 min. This electrical stimulation period was applied before and after both antagonist and agonist addition. Output from the transducer amplifier was recorded on a flat bed recorder (Gould BS 272, Cleveland, Ohio, U.S.A.). All drugs were dissolved in dimethyl sulfoxide (DMSO; Sigma, St Louis, Mo., U.S.A.) and allowed to equilibrate with the tissue for 30 min before the responses to field stimulation were assessed. Drug effects were measured as the percentage decrease of the pre-drug twitch force.

CB2 receptor = target: T2, CB2 receptor (Rattus norvegicus, UniProt Q9QZN9); experiment: Radioligand binding assay, rat spleen membranes
T2 sequence (Q9QZN9 1-343 limits assumed): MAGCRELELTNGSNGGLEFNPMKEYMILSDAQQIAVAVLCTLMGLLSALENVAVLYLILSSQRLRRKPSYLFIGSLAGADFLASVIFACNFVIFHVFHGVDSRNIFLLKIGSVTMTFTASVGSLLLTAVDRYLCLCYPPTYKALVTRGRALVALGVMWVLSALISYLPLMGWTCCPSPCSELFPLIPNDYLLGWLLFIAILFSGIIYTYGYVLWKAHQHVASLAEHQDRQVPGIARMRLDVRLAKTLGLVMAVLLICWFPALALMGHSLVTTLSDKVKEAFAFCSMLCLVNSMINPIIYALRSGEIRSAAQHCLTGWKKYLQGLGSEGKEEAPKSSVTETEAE
Procedure: (§1) The affinity of compounds at cannabinoid receptors is routinely assessed using ligand binding assays known to those skilled in the art. Radioligand binding assays were conducted using rat cerebellum or rat spleen. The cerebellum of the rat is known to express predominantly, if not exclusively, the CB1 receptor subtype (20,21). Thus, binding constants obtained from these studies are characterised by a single affinity value, as only one receptor type is labelled. […] In contrast, biphasic binding curves in the spleen characterised by two affinity constants represent the profile of compounds showing selectivity for one receptor subtype over another. In order to determine the order of selectivity, the high and low affinity values obtained for these compounds in the spleen binding assays were compared to the single affinity estimates obtained for the cerebellum (CB1) assays.
Sprague Dawley rats (200-300 g) were killed by gassing with 80% CO2 in O2 and decapitation and the spleen excised rapidly and placed in ice-cold Tris-HCl buffer (Tris 50 mM, MgCl2 3 mM, EGTA 0.2 mM, pH 7.4). The spleen was weighed and diced using a scalpel before homogenisation in 10 volumes of Tris-HCl buffer. The homogenate was then made up to 20 volumes and centrifuged (12,600 g, 5 min, 4° C.), the supernatant was retained and centrifuged (23,800 g, 20 min, 4° C.). The pellet was resuspended in 10 volumes of buffer and assayed for protein content using the method of Bradford (Bradford, 1976) with BSA as the standard. The homogenate was then recentrifuged and the final pellet resuspended in Tris-HCl buffer at a protein concentration of 5 mg/ml and stored in 500 μl aliquots at −80° C. until used for the binding assay.
(§2) Ligand binding assays were performed in polypropylene tubes in a total volume of 1 ml containing Tris-HCl buffer, a final concentration of 1 mg/ml BSA, and varying concentrations of drugs. Tubes contained 30 μg of membrane protein and incubation was started by the addition of 100 μl of either 0.5 nM [^3H]SR141716A or 0.2 nM [^3H]WIN 55,212-2. Experiments were carried out in triplicate at 30° C. for 90 min with non-specific binding being defined as radioligand binding in the presence of 1 μM unlabelled WIN 55,212-2. Incubations were terminated by rapid filtration with a M-24 Cell Harvester (Brandel; Gaithersburg, Md., U.S.A.) using ice-cold Tris-HCl buffer containing 0.5 mg/ml BSA. Filters (Wattman GF/B) were soaked for 2 h prior to filtering in a solution of Tris-HCl buffer containing 3 mg/ml BSA and 0.5% w/w polyethyleneimine (PEI). Filters were left to dry thoroughly before placement into scintillation vials with 5 ml of scintillation cocktail (Ultima Gold LSC-cocktail; Packard Bioscience, Meriden, Conn., U.S.A.) being added. Vials were left to stand overnight before the radioactivity was determined using a Model 1409 DSA Liquid Scintillation counter (EG&E Wallac, Gaithersburg, Md., U.S.A.).
(§3) The resulting radioligand binding curves were analyzed by nonlinear regression using the program PRISM 3.0 (GraphPad Software, San Diego, Calif.) in order to derive ligand affinity estimates for the cannabinoid receptor(s).

CB1 receptor [2] = target: T3, CB1 receptor (Rattus norvegicus, UniProt P20272); experiment: Radioligand binding assay, rat cerebellum membranes
T3 construct: the cerebellum was dissected away from the rest of the brain, weighed and homogenised; from tissue; host or cells: Sprague Dawley rat cerebellum membranes
T3 sequence (P20272 whole entry): as the sequence (P47746 whole entry) above, with D95E counted along it
Procedure: as §1
Sprague Dawley rats of either sex (200-300 g) were killed by gassing with 80% CO2 in O2 and decapitation, and the entire brain excised rapidly and placed in ice-cold Tris-HCl buffer (Tris 50 mM, MgCl2 3 mM, EGTA 0.2 mM, pH to 7.4 with HCl). On ice, the cerebellum was dissected away from the rest of the brain, weighed and homogenised (PT-DA 1205/2EC Polytron Aggregate; Kinematica, Luzernerstrasse Switzland) in 10 volumes of ice-cold Tris-HCl buffer. The homogenate was then made up to 20 volumes and centrifuged (Model J2-M1, Beckman, Fullerton, Calif., U.S.A.) at […] for 15 min at 4° C.). Subsequently, the supernatant was discarded, the pellet resuspended in 20 volumes of buffer and centrifuged as before. The resulting pellet was then resuspended in 20 volumes of buffer and assayed for protein content using the method of Bradford (Bradford, 1976) in a Novaspec II spectrophotometer (Pharmacia Biotech; with bovine serum albumin (BSA; Hömosafe BSA, c/o ‘ScimaR’ Templestowe, Australia) as the standard. The homogenate was then recentrifuged and the final pellet resuspended in Tris-HCl buffer at a protein concentration of 5 mg/ml and stored in 500 μl aliquots at −80° C. until used in the binding assay.
as §2, §3

c1ccc(Cc2noc(-c3cn(CCN4CCCC4)c4ccccc34)n2)cc1 [Compound 1, 3-(3-Benzyl-[1,2,4]-oxadiazol-5-yl)-1-[2-(pyrrolidin-1-yl)ethyl]-1H-indole]
inhibition at 1 µM (CB1 receptor [1]): 80% | IC50 (CB2 receptor): 1600 nM | IC50 (CB1 receptor [2]): 50 nM
